# Assay: Antimicrobial activity assay: whole-cell MIC by broth microdilution (NCCLS M7-A6)
# Assay type: cell-based
# Conditions: versus all the organisms named above (S. aureus WCUH29, S. pneumoniae 1629, S. pyogenes CN 10, E. faecalis 2, H. influenzae NEMC1, E. coli 7623, M. catarrhalis Ravasio); read-out: MIC
# Method: Whole-cell antimicrobial activity was determined by broth microdilution using the National Committee for Clinical Laboratory Standards (NCCLS) recommended procedure, Document M7-A6, “Methods for Dilution Susceptibility Tests for Bacteria that Grow Aerobically”. The compounds were tested in serial two-fold dilutions ranging from 0.016 to 16 mcg/mL. Compounds were evaluated against a panel of Gram-positive organisms, including Staphylococcus aureus WCUH29, Streptococcus pneumoniae 1629, Streptococcus pyogenes CN 10, and Enterococcus faecalis 2. In addition, compounds were evaluated against a panel of Gram-negative strains including Haemophilus influenzae NEMC1, E. coli 7623, and Moraxella catarrhalis Ravasio. The minimum inhibitory concentration (MIC) was determined as the lowest concentration of compound that inhibited visible growth. A mirror reader was used to assist in determining the MIC endpoint.
# Compounds of the present invention have MIC's ≦20 μg/ml versus all the organisms named above.
row,SMILES,MIC [µg/mL]
1,"COc1ccc2ncc(F)c(CCN3CCC(NC(=O)c4ccc5c(n4)NC(=O)CS5)CC3)c2c1.Cl [Example 95, N-(1-{2-[3-fluoro-6-(methoxy)-4-quinolinyl]ethyl}-4-piperidinyl)3-oxo-3,4-dihydro-2H-pyrido[3,2-b][1,4]thiazine-6-carboxamide hydrochloride]",≤ 2
2,"COc1ccc2ncc(F)c(CCN3CC[C@@H](NCc4cc5c(cn4)OCCO5)[C@H](O)C3)c2c1.Cl.Cl (relative stereo) [Example 117, trans-4-[(2,3-dihydro[1,4]dioxino[2,3-c]pyridin-7-ylmethyl)amino]-1-{2-[3-fluoro-6-(methoxy)-4-quinolinyl]ethyl}-3-piperidinol dihydrochloride]",≤ 2
3,"COc1ccc2ncc(Cl)c(CCN3CC[C@@H](NCc4ccc5c(n4)NC(=O)CO5)[C@H](O)C3)c2n1.Cl.Cl.Cl (single isomer, unassigned; enantiomer 1) [Example 153, trans-6-({1-[2-(3-Chloro-6-methoxy-[1,5]naphthyridin-4-yl)-ethyl]-3-hydroxy-piperidin-4-ylamino}-methyl)-4H-pyrido[3,2-b][1,4] oxazin-3-one trihydrochloride Enantiomer 1]",≤ 2
4,"COc1ccc2ncc(Cl)c(CCN3CCC(NCc4ccc5c(n4)NC(=O)CS5)CC3)c2c1.Cl.Cl.Cl [Example 13, 6-({1-[2-(3-Chloro-6-methoxyquinolin-4-yl)ethyl]piperidin-4-ylamino}methyl)-4H-pyrido[3,2-b][1,4]thiazin-3-one Trihydrochloride]",≤ 2
5,"COc1ccc2ncc(F)c(CCN3CCC(NCc4ccc5c(n4)NC(=O)CS5)CC3)c2n1.Cl.Cl [Example 59, 6-{[(1-{2-[3-Fluoro-6-(methoxy)-1,5-naphthyridin-4-yl]ethyl}-4-piperidinyl)amino]methyl}-2H-pyrido[3,2-b][1,4]thiazin-3(4H)-one dihydrochloride]",≤ 2
6,"Cl.Cl.O=C1CSc2ccc(CNC3CCN(CCc4c(F)cnc5ccc(F)cc45)CC3)nc2N1 [Example 106, 6-[({1-[2-(3,6-difluoro-4-quinolinyl)ethyl]-4-piperidinyl}amino)methyl]-2H-pyrido[3,2-b][1,4]thiazin-3(4H)-one dihydrochloride]",≤ 2
7,"COc1ccc2ncc(Cl)c(CCN3CC[C@@H](NCc4ccc5c(n4)NC(=O)CS5)[C@H](O)C3)c2n1.Cl.Cl (single isomer, unassigned; enantiomer 2) [Example 39, (trans)-6-({1-[2-(3-Chloro-6-methoxy-[1,5]naphthyridin-4-yl)-ethyl]-3-hydroxy-piperidin-4-ylamino}-methyl)-4H-pyrido[3,2-b][1,4]-thiazin-3-one Dihydrochloride Enantiomer 2]",≤ 2
8,"COc1ccc2ncc(F)c(CCN3CC[C@@H](NCc4ccc5c(n4)NC(=O)CO5)[C@H](O)C3)c2c1.Cl.Cl (relative stereo) [Example 133, trans-6-{[(1-{2-[3-fluoro-6-(methoxy)-4-quinolinyl]ethyl}-3-hydroxy-4-piperidinyl)amino]methyl}-2H-pyrido[3,2-b][1,4]oxazin-3(4H)-one dihydrochloride]",≤ 2
9,"COc1ccc2ncc(Cl)c(CCN3CCC(NCc4cc5c(cn4)OCCO5)CC3)c2c1.Cl.Cl [Example 4, {1-[2-(3-Chloro-6-methoxy-quinolin-4-yl)-ethyl]-piperidin-4-yl}-(2,3-dihydro-[1,4]dioxino[2,3-c]pyridin-7-ylmethyl)-amine Dihydrochloride]",≤ 2
10,"COc1ccc2ncc(Cl)c(CCN3CCC(NCc4cc5c(cn4)OCCO5)(C(N)=O)CC3)c2n1.Cl.Cl [Example 91, 1-{2-[3-chloro-6-(methoxy)-1,5-naphthyridin-4-yl]ethyl}-4-[(2,3-dihydro[1,4]dioxino[2,3-c]pyridin-7-ylmethyl)amino]-4-piperidinecarboxamide dihydrochloride]",≤ 2
11,"COc1cc(F)c2ncc(Cl)c(CCN3CC[C@H](NCc4ccc5c(n4)NC(=O)CS5)[C@H](O)C3)c2c1.Cl.Cl (single isomer, unassigned; enantiomer 1) [Example 97]",≤ 2
12,"COc1ccc2ncc(F)c(CCN3CCC(NCc4cnc5c(c4)NC(=O)CS5)CC3)c2n1.Cl.Cl [Example 56, 7-{[(1-(2-[3-fluoro-6-(methoxy)-1,5-naphthyridin-4-yl]ethyl}-4-piperidinyl)amino]methyl}-1H-pyrido[2,3-b][1,4]thiazin-2(3H)-one dihydrochloride]",≤ 2
13,"COc1ccc2ncc(F)c(CCN3CC[C@H](NCc4cnc5c(c4)NC(=O)CS5)[C@H](O)C3)c2c1.Cl.Cl (single isomer, unassigned; enantiomer 1) [Example 96]",≤ 2
14,"COc1ccc2ncc(F)c(C(O)CN3CCC(NCc4cc5c(cn4)OCCO5)CC3)c2c1.Cl.Cl (single isomer, unassigned; enantiomer 1) [Example 156, 2-{4-[(2,3-dihydro[1,4]dioxino[2,3-c]pyridin-7-ylmethyl)amino]-1-piperidinyl}-1-[3-fluoro-6-(methoxy)-4-quinolinyl]ethanol dihydrochloride Enantiomer 1]",≤ 2
15,"COc1ccc2ncc(F)c(CCN3CCC(NCc4cnc5c(c4)OCCO5)CC3)c2c1.Cl.Cl [Example 85, N-(2,3-dihydro[1,4]dioxino[2,3-b]pyridin-7-ylmethyl)-1-(2-[3-fluoro-6-(methoxy)-4-quinolinyl]ethyl}-4-piperidinamine dihydrochloride]",≤ 2
16,"COc1cc(F)c2ncc(F)c(CCN3CC[C@H](NCc4cnc5c(c4)NC(=O)CS5)[C@H](O)C3)c2c1.Cl.Cl (single isomer, unassigned; enantiomer 1) [Example 72]",≤ 2
17,"COc1ccc2ncc(F)c(CCN3CCC(C)(NCc4ccc5c(n4)NC(=O)CS5)CC3)c2n1.Cl.Cl [Example 139, 6-{[(1-{2-[3-fluoro-6-(methoxy)-1,5-naphthyridin-4-yl]ethyl}-4-methyl-4-piperidinyl)amino]methyl}-2H-pyrido[3,2-b][1,4]thiazin-3(4H)-one dihydrochloride]",≤ 2
18,"COc1ccc2ncc(Cl)c(CCN3CC[C@H](NCc4ccc5c(n4)NC(=O)CO5)[C@H](O)C3)c2c1.Cl.Cl (single isomer, unassigned; enantiomer 1) [Example 5, 6-({(cis)-1-[2-(3-Chloro-6-methoxy-quinolin-4-yl)-ethyl]-3-hydroxy-piperidin-4-ylamino}-methyl)-4H-pyrido[3,2-b][1,4]oxazin-3-one Dihydrochloride Enantiomer 1]",≤ 2
19,"COc1ccc2ncc(F)c(CCN3CCC(NC(=O)c4ccc5c(n4)NC(=O)CO5)CC3)c2c1.Cl [Example 94, N-(1-{2-[3-fluoro-6-(methoxy)-4-quinolinyl]ethyl}-4-piperidinyl)-3-oxo-3,4-dihydro-2H-pyrido[3,2-b][1,4]oxazine-6-carboxamide hydrochloride]",≤ 2
20,"Cl.Cl.O=C1CSc2ccc(CNC3CCN(CCc4c(Cl)cnc5ccc(F)cc45)CC3)nc2N1 [Example 25, 6-({1-[2-(3-Chloro-6-fluoro-quinolin-4-yl)-ethyl]-piperidin-4-ylamino}-methyl)-4H-pyrido[3,2-b][1,4]thiazin-3-one Dihydrochloride]",≤ 2
21,"COc1ccc2ncc(F)c(CCN3CCC(C)(NC(=O)c4ccc5c(n4)NC(=O)CO5)CC3)c2n1 [Example 167, N-(1-{2-[3-fluoro-6-(methoxy)-1,5-naphthyridin-4-yl]ethyl}-4-methyl-4-piperidinyl)-3-oxo-3,4-dihydro-2H-pyrido[3,2-b][1,4]oxazine-6-carboxamide]",≤ 2
22,"COc1ccc2ncc(F)c(CCN3CC[C@@H](NCc4cc5c(cn4)OCCO5)[C@@H](O)C3)c2n1.Cl.Cl (single isomer, unassigned; enantiomer 2) [Example 158]",≤ 2
23,"COc1ccc2ncc(F)c(CCN3CCC(NCc4cc5c(cn4)OCS5)CC3)c2n1.Cl.Cl [Example 61, 1-{2-[3-Fluoro-6-(methoxy)-1,5-naphthyridin-4-yl]ethyl}-N-([1,3]oxathiolo[5,4-c]pyridin-6-ylmethyl)-4-piperidinamine dihydrochloride]",≤ 2
24,"COc1ccc2ncc(F)c(CCN3CCC(C)(NCc4cc5c(cn4)OCCO5)CC3)c2n1.Cl.Cl [Example 140, N-(2,3-dihydro[1,4]dioxino[2,3-c]pyridin-7-ylmethyl)-1-{2-[3-fluoro-6-(methoxy)-1,5-naphthyridin-4-yl]ethyl}-4-methyl-4-piperidinamine dihydrochloride]",≤ 2
25,"COc1ccc2ncc(Cl)c(C(CO)CN3CCC(NCc4ccc5c(n4)NC(=O)CS5)CC3)c2n1.Cl.Cl (centres unmarked) [Example 105, 6-{[(1-{2-[3-chloro-6-(methoxy)-1,5-naphthyridin-4-yl]-3-hydroxypropyl}-4-piperidinyl)amino]methyl}-2H-pyrido[3,2-b][1,4]thiazin-3(4H)-one dihydrochloride]",≤ 2
26,"COc1cc(F)c2ncc(F)c(CCN3CC[C@H](NCc4ccc5c(n4)NC(=O)CS5)[C@H](F)C3)c2c1.Cl.Cl (single isomer, unassigned; enantiomer 1) [Example 149, cis-6-{[(-1-{2-[3,8-difluoro-6-(methoxy)-4-quinolinyl]ethyl}-3-fluoro-4-piperidinyl)amino]methyl}-2H-pyrido[3,2-b][1,4]thiazin-3(4H)-one dihydrochloride, Enantiomer 1]",≤ 2

# Reference: patent US20060041123A1, “Antibacterial agents” (priority 2002, published 2006)
